Results: the NIST ThermoML archive (doi:10.1021/je900503p)

Experiments:
[1] = relative permittivity at zero frequency (dimensionless); xn = mol fraction of the nth substance listed; details: 101 kPa, Liquid, Dekameter
[2] = xn = mol fraction of the nth substance listed; details: 101 kPa, Liquid
[3] = refractive index (Na D-line) (dimensionless); xn = mol fraction of the nth substance listed; details: 101 kPa, Liquid

O=C1CCCO1 [γ-butyrolactone] + CCC(C)O
Details	mass density [kg/m3]	refractive index	relative permittivity at zero frequency
[1], 293.15 K, x1 = 0.1009	–	–	17.91
[1], 293.15 K, x1 = 0.2112	–	–	19.08
[1], 293.15 K, x1 = 0.3009	–	–	20.56
[1], 293.15 K, x1 = 0.4008	–	–	22.53
[1], 293.15 K, x1 = 0.5088	–	–	25.16
[1], 293.15 K, x1 = 0.6003	–	–	27.69
[1], 293.15 K, x1 = 0.7001	–	–	30.91
[1], 293.15 K, x1 = 0.8055	–	–	34.66
[1], 293.15 K, x1 = 0.9011	–	–	38.29
[1], 298.15 K, x1 = 0.1009	–	–	16.66
[1], 298.15 K, x1 = 0.2112	–	–	17.89
[1], 298.15 K, x1 = 0.3009	–	–	19.48
[1], 298.15 K, x1 = 0.4008	–	–	21.48
[1], 298.15 K, x1 = 0.5088	–	–	24.01
[1], 298.15 K, x1 = 0.6003	–	–	26.59
[1], 298.15 K, x1 = 0.7001	–	–	29.67
[1], 298.15 K, x1 = 0.8055	–	–	33.02
[1], 298.15 K, x1 = 0.9011	–	–	37.47
[1], 303.15 K, x1 = 0.1009	–	–	16.75
[1], 303.15 K, x1 = 0.2112	–	–	18.21
[1], 303.15 K, x1 = 0.3009	–	–	19.37
[1], 303.15 K, x1 = 0.4008	–	–	21.28
[1], 303.15 K, x1 = 0.5088	–	–	23.71
[1], 303.15 K, x1 = 0.6003	–	–	26.26
[1], 303.15 K, x1 = 0.7001	–	–	29.48
[1], 303.15 K, x1 = 0.8055	–	–	33.39
[1], 303.15 K, x1 = 0.9011	–	–	36.73
[1], 313.15 K, x1 = 0.1009	–	–	16.09
[1], 313.15 K, x1 = 0.2112	–	–	17.48
[1], 313.15 K, x1 = 0.3009	–	–	18.55
[1], 313.15 K, x1 = 0.4008	–	–	20.43
[1], 313.15 K, x1 = 0.5088	–	–	22.86
[1], 313.15 K, x1 = 0.6003	–	–	25.55
[1], 313.15 K, x1 = 0.7001	–	–	28.79
[1], 313.15 K, x1 = 0.8055	–	–	32.73
[1], 313.15 K, x1 = 0.9011	–	–	36.05
[2], 293.15 K, x1 = 0.0564	820.99	–	–
[2], 293.15 K, x1 = 0.1213	839.11	–	–
[2], 293.15 K, x1 = 0.2541	877.55	–	–
[2], 293.15 K, x1 = 0.3003	891.34	–	–
[2], 293.15 K, x1 = 0.3895	918.62	–	–
[2], 293.15 K, x1 = 0.4574	939.95	–	–
[2], 293.15 K, x1 = 0.5005	953.71	–	–
[2], 293.15 K, x1 = 0.5876	982.13	–	–
[2], 293.15 K, x1 = 0.6442	1001.11	–	–
[2], 293.15 K, x1 = 0.7127	1024.55	–	–
[2], 293.15 K, x1 = 0.8006	1055.41	–	–
[2], 293.15 K, x1 = 0.8554	1075.08	–	–
[2], 293.15 K, x1 = 0.9262	1101.09	–	–
[2], 293.15 K, x1 = 0.9785	1120.58	–	–
[2], 298.15 K, x1 = 0.0564	817.52	–	–
[2], 298.15 K, x1 = 0.1213	835.59	–	–
[2], 298.15 K, x1 = 0.2541	873.9	–	–
[2], 298.15 K, x1 = 0.3003	887.63	–	–
[2], 298.15 K, x1 = 0.3895	914.8	–	–
[2], 298.15 K, x1 = 0.4574	936.03	–	–
[2], 298.15 K, x1 = 0.5005	949.73	–	–
[2], 298.15 K, x1 = 0.5876	978.07	–	–
[2], 298.15 K, x1 = 0.6442	996.91	–	–
[2], 298.15 K, x1 = 0.7127	1020.25	–	–
[2], 298.15 K, x1 = 0.8006	1050.96	–	–
[2], 298.15 K, x1 = 0.8554	1070.55	–	–
[2], 298.15 K, x1 = 0.9262	1096.44	–	–
[2], 298.15 K, x1 = 0.9785	1115.89	–	–
[2], 303.15 K, x1 = 0.0564	814	–	–
[2], 303.15 K, x1 = 0.1213	831.99	–	–
[2], 303.15 K, x1 = 0.2541	870.15	–	–
[2], 303.15 K, x1 = 0.3003	883.83	–	–
[2], 303.15 K, x1 = 0.3895	910.88	–	–
[2], 303.15 K, x1 = 0.4574	932.02	–	–
[2], 303.15 K, x1 = 0.5005	945.67	–	–
[2], 303.15 K, x1 = 0.5876	973.9	–	–
[2], 303.15 K, x1 = 0.6442	992.68	–	–
[2], 303.15 K, x1 = 0.7127	1015.92	–	–
[2], 303.15 K, x1 = 0.8006	1046.52	–	–
[2], 303.15 K, x1 = 0.8554	1066.03	–	–
[2], 303.15 K, x1 = 0.9262	1091.83	–	–
[2], 303.15 K, x1 = 0.9785	1111.21	–	–
[2], 313.15 K, x1 = 0.0564	805.57	–	–
[2], 313.15 K, x1 = 0.1213	823.45	–	–
[2], 313.15 K, x1 = 0.2541	861.53	–	–
[2], 313.15 K, x1 = 0.3003	875.2	–	–
[2], 313.15 K, x1 = 0.3895	902.14	–	–
[2], 313.15 K, x1 = 0.4574	923.19	–	–
[2], 313.15 K, x1 = 0.5005	936.83	–	–
[2], 313.15 K, x1 = 0.5876	964.91	–	–
[2], 313.15 K, x1 = 0.6442	983.59	–	–
[2], 313.15 K, x1 = 0.7127	1006.75	–	–
[2], 313.15 K, x1 = 0.8006	1037.12	–	–
[2], 313.15 K, x1 = 0.8554	1056.44	–	–
[2], 313.15 K, x1 = 0.9262	1081.97	–	–
[2], 313.15 K, x1 = 0.9785	1101.4	–	–
[3], 293.15 K, x1 = 0.1009	–	1.4004	–
[3], 293.15 K, x1 = 0.2112	–	1.4009	–
[3], 293.15 K, x1 = 0.3009	–	1.4021	–
[3], 293.15 K, x1 = 0.4008	–	1.4043	–
[3], 293.15 K, x1 = 0.5088	–	1.4076	–
[3], 293.15 K, x1 = 0.6003	–	1.4112	–
[3], 293.15 K, x1 = 0.7001	–	1.4162	–
[3], 293.15 K, x1 = 0.8055	–	1.4221	–
[3], 293.15 K, x1 = 0.9011	–	1.4285	–
[3], 298.15 K, x1 = 0.1009	–	1.3976	–
[3], 298.15 K, x1 = 0.2112	–	1.3978	–
[3], 298.15 K, x1 = 0.3009	–	1.3986	–
[3], 298.15 K, x1 = 0.4008	–	1.4005	–
[3], 298.15 K, x1 = 0.5088	–	1.4036	–
[3], 298.15 K, x1 = 0.6003	–	1.4071	–
[3], 298.15 K, x1 = 0.7001	–	1.4119	–
[3], 298.15 K, x1 = 0.8055	–	1.4175	–
[3], 298.15 K, x1 = 0.9011	–	1.4236	–
[3], 303.15 K, x1 = 0.1009	–	1.394	–
[3], 303.15 K, x1 = 0.2112	–	1.3943	–
[3], 303.15 K, x1 = 0.3009	–	1.3952	–
[3], 303.15 K, x1 = 0.4008	–	1.3974	–
[3], 303.15 K, x1 = 0.5088	–	1.4004	–
[3], 303.15 K, x1 = 0.6003	–	1.4036	–
[3], 303.15 K, x1 = 0.7001	–	1.4082	–
[3], 303.15 K, x1 = 0.8055	–	1.4135	–
[3], 303.15 K, x1 = 0.9011	–	1.4195	–
[3], 313.15 K, x1 = 0.1009	–	1.3909	–
[3], 313.15 K, x1 = 0.2112	–	1.3906	–
[3], 313.15 K, x1 = 0.3009	–	1.3912	–
[3], 313.15 K, x1 = 0.4008	–	1.3925	–
[3], 313.15 K, x1 = 0.5088	–	1.3952	–
[3], 313.15 K, x1 = 0.6003	–	1.3984	–
[3], 313.15 K, x1 = 0.7001	–	1.4023	–
[3], 313.15 K, x1 = 0.8055	–	1.4078	–
[3], 313.15 K, x1 = 0.9011	–	1.4133	–
